We go through 2 compounds from article PMC6604316 (Virology Journal, 2019).

Read-outs that look alike come from different tables or passages of the source. Marks after values point to notes of the source that are not given here.

This test addresses NA of A/Texas/12/2007 (H3N2 119 V) (Influenza A virus (A/Texas/12/2007(H3N2)), UniProt D1FVK3, I119V). The test is described as follows: biochemical. In kind it is biochemical.

In general, IC50 refers to the concentration at which inhibition is half-maximal. `CC(=O)N[C@H]1[C@H]([C@H](O)[C@H](O)CO)OC(C(=O)O)=C[C@@H]1N=C(N)N` [Zanamivir, zanamivir] gave an IC50 of 1.56 ± 0.55 nM. In the case of oseltamivir carboxylate, the Fold change is 520.08^c fold. The IC50 (read-out: Mean IC50 (nM) ± SD) is 62.4 ± 2.16 nM.
